Converted amounts (≈) assume the structure as drawn.
Experiments:
Assay in all cases: ≥ marks a high value that may be exact or a test limit, other limits are often not marked, values filed in µg/mL are converted to µM
[1] = test system: Staphylococcus aureus
[2] = test system: Pseudomonas aeruginosa
[3] = test system: Escherichia coli
[4] = test system: Escherichia coli ATCC 25922
[5] = test system: Staphylococcus epidermidis ATCC 12228
[6] = test system: Staphylococcus aureus ATCC 25923
[7] = test system: Escherichia coli UB1005
[8] = test system: Pseudomonas aeruginosa PAO1

MIC [1] | MIC [2] | MIC [3] | SMILES | other results
76 µM (≈ 195 µg/mL) | 19 µM (≈ 48.9 µg/mL) | 19 µM (≈ 48.9 µg/mL) | CC[C@H](C)[C@H](NC(=O)CN)C(=O)NCC(=O)N[C@@H](Cc1cnc[nH]1)C(=O)N[C@@H](Cc1ccccc1)C(=O)N[C@@H](CC(C)C)C(=O)N[C@@H](Cc1cnc[nH]1)C(=O)N[C@@H](CCCCN)C(=O)N[C@H](C(=O)N[C@@H](CCCCN)C(=O)N[C@@H](CO)C(=O)N[C@@H](Cc1ccccc1)C(=O)NCC(=O)N[C@@H](CCCCN)C(=O)N[C@@H](CO)C(=O)N[C@@H](Cc1c[nH]c2ccccc12)C(=O)N[C@H](C(=O)NCC(=O)N[C@@H](CCC(=O)O)C(=O)N[C@H](C(=O)N[C@@H](CCSC)C(=O)N[C@@H](CC(N)=O)C(=O)N[C@@H](CO)C(N)=O)[C@@H](C)CC)[C@@H](C)CC)C(C)C [GIGHFLHKVKSFGKSWIGEIMNS] | –
22 µM (≈ 43.4 µg/mL) | – | 3.5 µM (≈ 6.91 µg/mL) | CC[C@H](C)[C@H](NC(=O)[C@H](Cc1c[nH]c2ccccc12)NC(=O)[C@H](CCCCN)NC(=O)[C@@H](NC(=O)[C@H](CC(C)C)NC(=O)[C@@H](N)CCCCN)C(C)C)C(=O)N[C@H](C(=O)N[C@@H](CCCCN)C(=O)N[C@H](C(=O)N[C@H](C(=O)N[C@@H](CC(N)=O)C(=O)N[C@@H](CCCCN)C(=O)N[C@@H](Cc1ccccc1)C(=O)N[C@H](C(=O)N[C@@H](CCCCN)C(=O)N[C@@H](CCCCN)C(=O)O)[C@@H](C)O)C(C)C)[C@@H](C)O)[C@@H](C)CC [KLVKWIIKTVNKFTKK] | –
– | 10.1 µM (≈ 25 µg/mL) | – | CC[C@H](C)[C@H](NC(=O)[C@H](Cc1ccccc1)NC(=O)[C@H](CO)NC(=O)[C@H](CCCCN)NC(=O)[C@H](Cc1c[nH]c2ccccc12)NC(=O)[C@@H](N)CCCCN)C(=O)N[C@@H](CCCCN)C(=O)N[C@@H](CCCCN)C(=O)N[C@@H](CC(C)C)C(=O)N[C@H](C(=O)N[C@@H](CC(=O)O)C(=O)N[C@@H](CCCCN)C(=O)N[C@@H](Cc1ccccc1)C(=O)N[C@@H](CC(C)C)C(=O)N[C@@H](Cc1cnc[nH]1)C(=O)N[C@@H](CO)C(=O)N[C@@H](C)C(=O)N[C@@H](CCCCN)C(=O)N[C@@H](CCCCN)C(=O)N[C@@H](Cc1ccccc1)C(N)=O)[C@@H](C)O [KWKSFIKKLTDKFLHSAKKF] | –
– | 2.63 µM (≈ 6.25 µg/mL) | – | CC[C@H](C)[C@H](NC(=O)[C@H](Cc1ccccc1)NC(=O)[C@H](CO)NC(=O)[C@H](CCCCN)NC(=O)[C@H](Cc1c[nH]c2ccccc12)NC(=O)[C@@H](N)CCCCN)C(=O)N[C@@H](CCCCN)C(=O)N[C@@H](CCCCN)C(=O)N[C@@H](CC(C)C)C(=O)N[C@H](C(=O)N[C@@H](CO)C(=O)N[C@@H](CCCCN)C(=O)N[C@@H](C)C(=O)N[C@@H](CC(C)C)C(=O)N[C@@H](Cc1cnc[nH]1)C(=O)N[C@@H](CO)C(=O)N[C@@H](C)C(=O)N[C@@H](CCCCN)C(=O)N[C@@H](CCCCN)C(=O)N[C@@H](Cc1ccccc1)C(N)=O)[C@@H](C)O [KWKSFIKKLTSKALHSAKKF] | –
– | 2.56 µM (≈ 6.25 µg/mL) | – | CC[C@H](C)[C@H](NC(=O)[C@H](Cc1ccccc1)NC(=O)[C@H](CO)NC(=O)[C@H](CCCCN)NC(=O)[C@H](Cc1c[nH]c2ccccc12)NC(=O)[C@@H](N)CCCCN)C(=O)N[C@@H](CCCCN)C(=O)N[C@@H](CCCCN)C(=O)N[C@@H](CC(C)C)C(=O)N[C@H](C(=O)N[C@@H](CO)C(=O)N[C@@H](CCCCN)C(=O)N[C@@H](Cc1ccccc1)C(=O)N[C@@H](CC(C)C)C(=O)N[C@@H](Cc1cnc[nH]1)C(=O)N[C@@H](CO)C(=O)N[C@@H](C)C(=O)N[C@@H](CC(N)=O)C(=O)N[C@@H](CCCCN)C(=O)N[C@@H](Cc1ccccc1)C(N)=O)[C@@H](C)O [KWKSFIKKLTSKFLHSANKF] | –

Second part, the molecule before the results:

SMILES | MIC [1] | MIC [2] | MIC [3] | other results
CC[C@H](C)[C@H](NC(=O)CN)C(=O)N[C@@H](CCCCN)C(=O)N[C@@H](CCCCN)C(=O)N[C@@H](Cc1c[nH]c2ccccc12)C(=O)N[C@@H](CC(C)C)C(=O)N[C@@H](Cc1cnc[nH]1)C(=O)N[C@@H](CO)C(=O)N[C@@H](C)C(=O)N[C@@H](CCCCN)C(=O)N[C@@H](CCCCN)C(=O)N1CCC[C@H]1C(=O)NCC(=O)N[C@@H](CCCCN)C(=O)N[C@@H](CCCCN)C(=O)N[C@@H](Cc1ccccc1)C(=O)N[C@H](C(=O)N[C@@H](CCCCN)C(=O)N[C@@H](CCCCN)C(=O)N[C@H](C(=O)N[C@@H](CCSC)C(=O)N[C@@H](CC(N)=O)C(=O)N[C@@H](CO)C(N)=O)[C@@H](C)CC)C(C)C [GIKKWLHSAKKPGKKFVKKIMNS] | – | – | – | MIC [4]: 5 µM (≈ 13.3 µg/mL); MIC [5]: 5 µM (≈ 13.3 µg/mL)
CC[C@H](C)[C@H](NC(=O)[C@H](Cc1ccccc1)NC(=O)[C@H](CO)NC(=O)[C@H](CCCCN)NC(=O)[C@H](Cc1ccccc1)NC(=O)[C@@H](N)CCCCN)C(=O)N[C@@H](CCCCN)C(=O)N[C@@H](CCCCN)C(=O)N[C@@H](CC(C)C)C(=O)N[C@H](C(=O)N[C@@H](CO)C(=O)N[C@@H](CCCCN)C(=O)N[C@@H](Cc1ccccc1)C(=O)N[C@@H](CC(C)C)C(=O)N[C@@H](Cc1cnc[nH]1)C(=O)N[C@@H](CO)C(=O)N[C@@H](C)C(=O)N[C@@H](CCCCN)C(=O)N[C@@H](CCCCN)C(=O)N[C@@H](Cc1ccccc1)C(N)=O)[C@@H](C)O [KFKSFIKKLTSKFLHSAKKF] | – | 5.18 µM (≈ 12.5 µg/mL) | – | –
CC[C@H](C)[C@H](NC(=O)[C@H](C)NC(=O)[C@H](CC(C)C)NC(=O)[C@H](CCCCN)NC(=O)[C@H](CC(C)C)NC(=O)[C@@H](NC(=O)[C@@H](NC(=O)[C@@H](N)CCCCN)[C@@H](C)CC)[C@@H](C)O)C(=O)N[C@@H](CCCCN)C(=O)N[C@@H](C)C(=O)N[C@@H](Cc1c[nH]c2ccccc12)C(=O)N[C@@H](CCCCN)C(=O)N[C@@H](CC(C)C)C(=O)N[C@@H](C)C(=O)N[C@@H](CC(C)C)C(=O)N[C@@H](CCCCN)C(=O)N[C@@H](C)C(=O)N[C@@H](C)C(N)=O [KITLKLAIKAWKLALKAA] | 5.3 µM (≈ 10.5 µg/mL) | 21.2 µM (≈ 42 µg/mL) | 5.3 µM (≈ 10.5 µg/mL) | –
CC(C)C[C@H](NC(=O)[C@H](CC(N)=O)NC(=O)[C@H](Cc1c[nH]c2ccccc12)NC(=O)[C@H](CCCN=C(N)N)NC(=O)[C@H](C)NC(=O)[C@H](CCCCN)NC(=O)[C@H](CCCCN)NC(=O)CNC(=O)[C@H](CC(C)C)NC(=O)[C@H](Cc1ccc(O)cc1)NC(=O)[C@H](Cc1ccc(O)cc1)NC(=O)CNC(=O)[C@H](Cc1c[nH]c2ccccc12)NC(=O)[C@@H](N)CO)C(=O)O [SWGYYLGKKARWNL] | – | – | – | MIC [5]: > 50 µM
CC(C)C[C@H](NC(=O)[C@H](Cc1ccc(O)cc1)NC(=O)[C@@H]1CCCN1C(=O)[C@@H]1CCCN1C(=O)[C@H](CCCCN)NC(=O)[C@@H]1CCCN1C(=O)[C@@H](N)C(C)C)C(=O)N1CCC[C@H]1C(=O)N[C@@H](CCCN=C(N)N)C(=O)N1CCC[C@H]1C(=O)N[C@@H](CCCN=C(N)N)C(=O)N1CCC[C@H]1C(=O)N1CCC[C@H]1C(=O)N[C@@H](CCCN=C(N)N)C(=O)N[C@@H](CCCN=C(N)N)C(=O)N[C@@H](CCCCN)C(=O)N[C@@H](Cc1ccc(O)cc1)C(=O)N[C@@H](CC(N)=O)C(=O)N[C@@H](CCCN=C(N)N)C(N)=O [VPKPPYLPRPRPPRRKYNR] | – | – | – | MIC [6]: 1.68 µM (≈ 4 µg/mL); MIC [7]: 0.544 µM (≈ 1.3 µg/mL); MIC [8]: 13.4 µM (≈ 32 µg/mL)
CC(C)C[C@H](NC(=O)[C@H](Cc1ccccc1)NC(=O)[C@@H]1CCCN1C(=O)[C@H](Cc1ccccc1)NC(=O)[C@H](Cc1ccccc1)NC(=O)[C@H](Cc1ccccc1)NC(=O)[C@@H]1CCCN1C(=O)[C@H](Cc1ccccc1)NC(=O)[C@H](CCCN=C(N)N)NC(=O)[C@H](CCCN=C(N)N)NC(=O)[C@@H](N)C(C)C)C(=O)N[C@@H](CCCN=C(N)N)C(=O)N[C@@H](CCCN=C(N)N)C(N)=O [VRRFPFFFPFLRR] | 3.36 µM (≈ 6 µg/mL) | – | 3.36 µM (≈ 6 µg/mL) | –

Reference: DBAASP
